# Where two headings read alike, the source gives them in different places.
# Columns and labels:
# [1] = molecular target: tryptophanase of Bacteroides thetaiotamicron (Bacteroides thetaiotaomicron, UniProt Q8A7N2); assay: Tryptophanase enzyme inhibitory activity (LDH-coupled NADH loss); assay type: biochemical; conditions: L-tryptophan 10 mM, 37° C., absorbance at 340 nm; read-out: Bacteroides Activity of Inhibiting Tryptophanase (IC50)
# Method: Tryptophanase inhibitory activity was evaluated by a method using lactate dehydrogenase (LDH). The reaction time-dependent reduction in NADH conjugated with the enzymatic reaction, with LDH, of pyruvic acid produced through the enzymatic reaction of L-tryptophan as a substrate with tryptophanase, was measured with a spectrophotometer (Phillips-R S et al., Biochemistry, 23, 6228-6234 (1984)). Enzyme inhibitory activity obtained without adding a test compound (by adding DMSO alone) in the presence of tryptophanase was used as a control. As the enzyme, tryptophanase of Bacteroides thetaiotamicron (Genbank accession number: HC914434.1) was used. A test compound solution was prepared by dissolving each test compound in DMSO in an arbitrary concentration (from 30 mM to 30 nM at 10-fold common ratio). LDH, NADH and L-tryptophan were prepared, using distilled water, respectively to concentrations of 80 units/mL, 10 mM and […]. Bacteroides tryptophanase was prepared to 30 mg/mL. A potassium phosphate buffer was used as the buffer. [table] A reaction solution A was dispensed at 284.8 μL per well into a 96-well plate, and the test compound solution was added at 3.2 μL per well to obtain a final concentration of 1/100 (reaction solution B). The reaction solution B was incubated at 37° C. for 30 minutes, L-tryptophan was added thereto at 32 μL per well to obtain a final concentration of 10 mM (reaction solution C), and the enzyme reaction was performed at 37° C. over 30 minutes with absorbance at 340 nm measured for monitoring the NADH loss. Based on the NADH loss, the tryptophanase inhibitory activity of the compound was evaluated. Besides, the following compounds were similarly tested instead of the test compound.
# Bacteroides = assay: Indole production suppressing effect in viable bacteria; assay type: cell-based; conditions: indole concentration in culture supernatant, read-out: Eroides Activity of Inhibiting Indole Production(IC50)
# Method: The effect of a tryptophanase inhibitory compound to suppress indole production from a viable bacterium can be evaluated through the following operation. When E. coli (Escherichia Coli) is used as a strain known to produce indole, the strain is cultured in an LB medium at 37° C. for 12 to 18 hours under anaerobic conditions, and then, suspended in an assay medium (5 mM L-Tryptophan/PBS(+)/25 mM HEPES (pH8)) in such a manner as to obtain O.D. of about 0.3. When bacteroides is used, the strain is cultured in a modified GAM medium at 37° C. for 12 to 18 hours under anaerobic conditions, and then suspended in an assay medium (5 mM L-Tryptophan/PBS(+)/25 mM HEPES (pH8)) in such a manner as to obtain O.D. of about 1.1. The thus obtained viable bacterial suspension prepared to have a final concentration of a compound of 1 μM to 10 mM is dispensed at 200 μL per well into a 96-well plate and cultured at 37° C. for 2 to 4 hours under anaerobic conditions, and O.D., an ATP concentration (that can be quantitatively determined by using BacTiter-Glo (Promega Corporation)) and an indole concentration in the culture supernatant (that can be quantitatively determined by utilizing Ehrlich reaction) are measured. The effect of the tryptophanase inhibitory compound to suppress indole production from a viable bacterium can be evaluated depending on the degree of lowering of the indole concentration in the culture supernatant. It can be checked whether or not the effect is derived from a function other than tryptophanase inhibition, such as a bactericidal function or a bacterial growth inhibitory function, depending on lowering of the O.D. or reduction in the ATP concentration or by performing a generally practiced antibacterial activity test (a MIC (minimum growth inhibition concentration) test) using levofloxacin or the like as a positive control. The activities of inhibiting indole production of the compounds of the respective examples shown in Table 11 were measured by the above-described method using Bacteroides to evaluate the effect of inhibiting indole production.
# [2] = system: indoxyl sulfate concentration in the plasma; assay: Effect of reducing indoxyl sulfate concentration in the plasma of mice; assay type: in vivo, male BALB/c mouse; conditions: oral
# Method: An effect of a tryptophanase inhibitory compound to reduce an indoxyl sulfate concentration in the plasma of a mouse can be evaluated through the following operation.
# After fasting a male BALB/c mouse overnight, a tryptophanase compound dissolved or suspended at a concentration of 0.01 to 10 mg/mL in a 0.5% methylcellulose (MC) solution used as a solvent and a 0.5% MC solution are orally administered by gavage at a dose of 10 mL/kg respectively to a test compound group and to a solvent control group. When 30 minutes have elapsed after the administration of the test compound or the solvent, L-tryptophan, that is, a substrate of tryptophanase, is orally administered by gavage at a dose of 1 to 3 g/kg. The L-tryptophan is suspended in a 0.5% tragacanth solution. For 12 hours after the administration of the L-tryptophan, blood is collected over time from a tail vein by using a hematocrit tube. The thus obtained blood is centrifuged at 11,000 rpm for 5 minutes to collect plasma, and the indoxyl sulfate concentration in the plasma is measured singly by liquid chromatography (fluorescence detection) or its combination with a mass spectrometer used subsequently. The indoxyl sulfate concentration in the plasma of the test compound group against the indoxyl sulfate concentration in the plasma of the solvent control group is calculated as, for example, a ratio of the area under a curve of the indoxyl sulfate concentration, and thus, the efficacy of each compound in a living body can be compared.
# The indoxyl sulfate concentrations in plasma obtained by using the compounds of the respective examples shown in Table 12 below were measured by the above-described method to evaluate the effect of reducing indoxyl sulfate concentration.
# Chain of tryptophanase of Bacteroides thetaiotamicron (Q8A7N2 entry or part of it, change not shown): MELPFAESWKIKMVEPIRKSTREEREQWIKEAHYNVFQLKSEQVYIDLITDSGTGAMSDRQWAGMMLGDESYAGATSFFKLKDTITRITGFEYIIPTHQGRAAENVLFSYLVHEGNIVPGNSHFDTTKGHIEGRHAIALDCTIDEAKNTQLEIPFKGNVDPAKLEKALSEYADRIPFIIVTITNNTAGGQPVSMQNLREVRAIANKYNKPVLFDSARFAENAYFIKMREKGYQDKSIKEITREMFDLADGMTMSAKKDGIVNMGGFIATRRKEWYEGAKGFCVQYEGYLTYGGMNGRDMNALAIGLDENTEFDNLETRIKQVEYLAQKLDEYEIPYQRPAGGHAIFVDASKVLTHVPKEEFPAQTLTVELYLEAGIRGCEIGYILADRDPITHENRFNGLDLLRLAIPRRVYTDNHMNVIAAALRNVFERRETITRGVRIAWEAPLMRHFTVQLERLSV
Compound,IC50 [1],IC50 (Bacteroides; Bacteroides),"Indoxyl Sulfate Reduction Effect in Male BALB/c Mouse Plasma (Indoxyl sulfate reduction effect in plasma 6 hours after administering L-tryptophan: ED75−, mg/kg) [2]",IC50 (Bacteroides)
"CCC(CC)(NC(=O)Nc1ccc(CC#N)cc1)C(=O)O [Compound G, 2-({[4-(cyanomethyl)phenyl]carbamoyl}amino)-2-ethylbutanoic acid]",4.7 µM,8 µM,1 mg/kg,
"CCC(CC)(NC(=O)Nc1cccc(C#N)c1)C(=O)O [Compound F, 2-{[(3-cyanophenyl)carbamoyl]amino}-2-ethylbutanoic acid]",16.5 µM,12 µM,1 mg/kg,
"CC[C@@](C)(NC(=O)Nc1ccc(Br)cc1)C(=O)O [Example 30, (−)-N-[(4-Bromophenyl)carbamoyl]-D-isovaline]",22.1 µM,14 µM,1 mg/kg,
"CCC(CC)(NC(=O)Nc1ccsc1)C(=O)O [Compound H, 2-ethyl-2-[(thiophen-3-ylcarbamoyl)amino]butanoic acid]",34.1 µM,11 µM,1 mg/kg,
"CCC(CC)(NC(=O)Nc1ccc(F)cc1)C(=O)O [Compound D, 2-ethyl-2-{[(4-fluorophenyl)carbamoyl]amino}butanoic acid]",38.1 µM,11 µM,1 mg/kg,
"CCCC(CC)(NC(=O)Nc1ccc(OC(F)(F)F)cc1)C(=O)O (stereo not drawn) [Example 6, 2-Ethyl-N-{[4-(trifluoromethoxy)phenyl]carbamoyl}norvaline]",5.3 µM,,,
"CCC(CC)(NC(=O)Nc1ccc(N2CCC(F)(F)C2)cc1)C(=O)O [Example 44, 2-({[4-(3,3-Difluoropyrrolidine-1-yl)phenyl]carbamoyl}amino)-2-ethylbutanoic acid]",2.5 µM,,,
"N#CCc1ccc(NC(=O)NC(C(=O)O)(C2CC2)C2CC2)cc1 [Example 38, ({[4-(Cyanomethyl)phenyl]carbamoyl}amino)(dicyclopropyl)acetic acid]",3.4 µM,,,
"CCC(CC)(NC(=O)Nc1ccc(SC(F)(F)F)cc1)C(=O)O [Example 14, 2-Ethyl-2-[({4-[(trifluoromethyl)sulfanyl]phenyl}carbamoyl)amino]butanoic acid]",0.4 µM,,,
CCC(CC)(NC(=O)Nc1ccc(N2CCCCC2)cc1)C(=O)O [Example 43],1.6 µM,,,
"CCC(CC)(NC(=O)Nc1cccc(Cl)c1)C(=O)O [Compound B, 2-{[(3-chlorophenyl)carbamoyl]amino}-2-ethylbutanoic acid]",7.4 µM,< 3 µM,>1 mg/kg,
"CCC(CC)(NC(=O)Nc1ccc(OC(F)(F)F)cc1)C(=O)O [Example 1, 2-Ethyl-2-({[4-(trifluoromethoxy)phenyl]carbamoyl}amino)butanoic acid]",3.7 µM,,,
"CC[C@@](C)(NC(=O)Nc1ccc(I)cc1)C(=O)O [Example 31, (−)-N-[(4-Iodophenyl)carbamoyl]-D-isovaline]",7.9 µM,< 3 µM,1 mg/kg,
"CCC(CC)(NC(=O)Nc1cccc(F)c1)C(=O)O [Compound E, 2-ethyl-2-{[(3-fluorophenyl)carbamoyl]amino}butanoic acid]",18.9 µM,7 µM,>1 mg/kg,
"CCC(CC)(NC(=O)Nc1ccc(C(F)(F)F)cc1)C(=O)O [Example 20, 2-Ethyl-2-({[4-(trifluoromethyl)phenyl]carbamoyl}amino)butanoic acid]",11.6 µM,,,
"CC[C@@](C)(NC(=O)Nc1ccc(OC(F)(F)F)cc1)C(=O)O [Example 4, (−)-N-{[4-(Trifluoromethoxy)phenyl]carbamoyl}-D-isovaline]",8.8 µM,,,
"CCC(NC(=O)Nc1ccccc1)(C(=O)O)C1CC1 (stereo not drawn) [Example 22, 2-Cyclopropyl-2-[(phenylcarbamoyl)amino]butanoic acid]",2.1 µM,,,
"CC[C@@](C)(NC(=O)Nc1ccc(OC(F)F)c(F)c1)C(=O)O [Example 15, (−)-N-{[4-(Difluoromethoxy)-3-fluorophenyl]carbamoyl}-D-isovaline]",13.5 µM,14 µM,1 mg/kg,
"CCC(CC)(NC(=O)Nc1cc(F)cc(C#N)c1)C(=O)O [Example 36, 2-{[(3-Cyano-5-fluorophenyl)carbamoyl]amino}-2-ethylbutanoic acid]",20.1 µM,,,
"CC[C@@](C)(NC(=O)Nc1ccc(Cl)c(Cl)c1)C(=O)O [Example 29, N-[(3,4-Dichlorophenyl)carbamoyl]-D-isovaline]",15.5 µM,,,
"CCC(CC)(NC(=O)Nc1ccc(Cl)cc1)C(=O)O [Compound C, 2-{[(4-chlorophenyl)carbamoyl]amino}-2-ethylbutanoic acid]",16 µM,6 µM,>1 mg/kg,
"CCC(NC(=O)Nc1cccc(C#N)c1)(C(=O)O)C1CC1 (single isomer, unassigned) [(+) Isomer Compound of Example 33, (+)-2-{[(3-Cyanophenyl)carbamoyl]amino}-2-cyclopropylbutanoic acid]",0.6 µM,,1 mg/kg,< 3 µM
"CCC(CC)(NC(=O)Nc1ccc(-c2ccccc2)cc1)C(=O)O [Example 41, 2-[(Biphenyl-4-ylcarbamoyl)amino]-2-ethylbutanoic acid]",0.3 µM,,,
"CCC(NC(=O)Nc1cccc(C#N)c1)(C(=O)O)C1CC1 (stereo not drawn) [Example 32, 2-{[(3-Cyanophenyl)carbamoyl]amino}-2-cyclopropylbutanoic acid]",1 µM,,,
"CCC(CC)(NC(=O)Nc1ccc(-c2ccccc2F)cc1)C(=O)O [Example 42, 2-Ethyl-2-{[(2′-fluorobiphenyl-4-yl)carbamoyl]amino}butanoic acid]",0.1 µM,,,
"CCC(NC(=O)Nc1ccc(OC(F)(F)F)cc1)(C(=O)O)C1CC1 (stereo not drawn) [Example 7, 2-Cyclopropyl-2-({[4-(trifluoromethoxy)phenyl]carbamoyl}amino)butanoic acid]",0.3 µM,,,

# Reference: patent publication US10968169B2, “Urea derivative” (Daiichi Sankyo Company, Limited, priority 2016, dated 2021)
